This is an account of results in patent publication US20220089578A1, “COMPOUNDS AS GLP-1R AGONISTS” (Terns Pharmaceuticals, Inc., priority 2020, published 2022).

T1 sequence (P43220 24-463): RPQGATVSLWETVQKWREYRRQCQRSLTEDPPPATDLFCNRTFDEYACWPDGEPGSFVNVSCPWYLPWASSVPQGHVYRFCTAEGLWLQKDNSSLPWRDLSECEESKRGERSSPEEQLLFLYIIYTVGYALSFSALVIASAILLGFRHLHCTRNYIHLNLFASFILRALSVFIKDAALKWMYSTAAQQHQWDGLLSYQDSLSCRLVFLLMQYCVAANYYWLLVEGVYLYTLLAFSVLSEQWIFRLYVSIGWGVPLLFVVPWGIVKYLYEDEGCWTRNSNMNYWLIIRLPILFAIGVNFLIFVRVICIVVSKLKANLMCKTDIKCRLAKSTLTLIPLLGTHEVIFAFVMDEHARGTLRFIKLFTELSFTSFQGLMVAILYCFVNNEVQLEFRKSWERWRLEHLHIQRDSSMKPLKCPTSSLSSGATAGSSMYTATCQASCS

The first experiment has as its target T1, human GLP-1R (Homo sapiens, UniProt P43220). Put plainly: GLP-1R Cell Assay 1: cAMP Hunter CHO-K1 GLP1R Gs cell line, HitHunter cAMP assay. Type of experiment: cell-based. The settings on record: Table 2; cAMP Hunter CHO-K1 GLP1R Gs cells; percent activity normalized to Exendin-4. Summed up: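 Luminescent enzyme-fragment-complementation immunoassay quantified cellular cAMP after 30-60 min compound exposure at 37 °C in HBSS/10 mM HEPES. Data from duplicate runs were normalised to Exendin-4 and fitted nonlinearly for EC50.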
(In general: Cyclic AMP is a second messenger, typically raised through Gs and lowered through Gi signalling.)
Compound `O=C(O)c1ccc2nc(CN3CCC(c4cccc(OCc5nc6ccccc6s5)n4)CC3)n(C[C@@H]3CCO3)c2c1` [Compound 14, (S)-2-((4-(6-(benzo[d]thiazol-2-ylmethoxy)pyridin-2-yl)piperidin-1-yl)methyl)-1-(oxetan-2-ylmethyl)-1H-benzo[d]imidazole-6-carboxylic acid] returned an EC50 of 0.246 nM.
Same read-out and setting: as for `O=C(O)c1ccc2nc(CN3CCN(c4cccc(OCC5CCS(=O)(=O)CC5)n4)CC3)n(C[C@@H]3CCO3)c2c1` [Compound 54, (S)-2-((4-(6-((1,1-dioxidotetrahydro-2H-thiopyran-4-yl)methoxy)pyridin-2-yl)piperazin-1-yl)methyl)-1-(oxetan-2-ylmethyl)-1H-benzo[d]imidazole-6-carboxylic acid], the figure is greater than 500 nM; as for `O=C(O)c1ccc2nc(CN3CCN(c4cccc(OCc5nc6ccc(F)cc6s5)n4)CC3)n(C[C@@H]3CCO3)c2c1` [Compound 128, (S)-2-((4-(6-((6-fluorobenzo[d]thiazol-2-yl)methoxy)pyridin-2-yl)piperazin-1-yl)methyl)-1-(oxetan-2-ylmethyl)-1H-benzo[d]imidazole-6-carboxylic acid], 0.246 nM.
On the same count and under the same terms, in the case of `N#Cc1ccc(COc2nn(C3CCN(Cc4nc5ccc(C(=O)O)cc5n4C[C@@H]4CCO4)CC3)cc2C(F)F)c(F)c1` [Compound 135, (S)-2-((4-(3-((4-cyano-2-fluorobenzyl)oxy)-4-(difluoromethyl)-1H-pyrazol-1-yl)piperidin-1-yl)methyl)-1-(oxetan-2-ylmethyl)-1H-benzo[d]imidazole-6-carboxylic acid] it was 4.88 nM; in that of `O=C(O)c1ccc2nc(CN3CC[C@]4(c5cccc(OCc6ccc(Cl)cc6Cl)n5)C[C@@H]4C3)n(C[C@@H]3CCO3)c2c1` (single isomer, unassigned) [Compound 126-P2], 0.373 nM.
Same read-out and setting: in the case of `CC1(COc2cccc(N3CCN(Cc4nc5ccc(C(=O)O)cc5n4C[C@@H]4CCO4)CC3)n2)CC(F)(F)C1` [Compound 34, (S)-2-((4-(6-((3,3-difluoro-1-methylcyclobutyl)methoxy)pyridin-2-yl)piperazin-1-yl)methyl)-1-(oxetan-2-ylmethyl)-1H-benzo[d]imidazole-6-carboxylic acid] it was 333 nM.
Regarding `O=C(O)c1ccc2nc(CN3CCN(c4cccc(OCC5CC6(CCOCC6)C5)n4)CC3)n(C[C@@H]3CCO3)c2c1` [Compound 48, (S)-2-((4-(6-((7-oxaspiro[3.5]nonan-2-yl)methoxy)pyridin-2-yl)piperazin-1-yl)methyl)-1-(oxetan-2-ylmethyl)-1H-benzo[d]imidazole-6-carboxylic acid], the half-maximal effective concentration (EC50) was greater than 500 nM.
Same read-out and setting: as for `N#Cc1ccc2c(c1)CN(c1ccn(C3CCN(Cc4nc5ccc(C(=O)O)cc5n4C[C@@H]4CCO4)CC3)n1)CC2` [Compound 25, (S)-2-((4-(3-(7-cyano-3,4-dihydroisoquinolin-2(1H)-yl)-1H-pyrazol-1-yl)piperidin-1-yl)methyl)-1-(oxetan-2-ylmethyl)-1H-benzo[d]imidazole-6-carboxylic acid], the figure is greater than 500 nM; as for `O=C(O)c1ccc2nc(CN3CCN(c4cccc(OCc5ccc6ocnc6c5)n4)CC3)n(C[C@@H]3CCO3)c2c1` [Compound 103, (S)-2-((4-(6-(benzo[d]oxazol-5-ylmethoxy)pyridin-2-yl)piperazin-1-yl)methyl)-1-(oxetan-2-ylmethyl)-1H-benzo[d]imidazole-6-carboxylic acid], 5.54 nM.
The same measure, in the same setting: in the case of `CCc1cn(C2CCN(Cc3nc4ccc(C(=O)O)cc4n3C[C@@H]3CCO3)CC2)nc1OCc1ccc(C#N)cc1F` [Compound 124, (S)-2-((4-(3-((4-cyano-2-fluorobenzyl)oxy)-4-ethyl-1H-pyrazol-1-yl)piperidin-1-yl)methyl)-1-(oxetan-2-ylmethyl)-1H-benzo[d]imidazole-6-carboxylic acid] it was 22.9 nM; in that of `N#Cc1ccc(COc2cccc(C3CCN([C@H]4COCCn5c4nc4ccc(C(=O)O)cc45)CC3)n2)c(F)c1` (single isomer, unassigned) [Compound 7-P1], 5.19 nM.
With `Cc1cn(C2CCN(Cc3nc4ccc(C(=O)O)cc4n3C[C@@H]3CCO3)CC2)nc1OCc1ccccc1` [Compound 24, (S)-2-((4-(3-(benzyloxy)-4-methyl-1H-pyrazol-1-yl)piperidin-1-yl)methyl)-1-(oxetan-2-ylmethyl)-1H-benzo[d]imidazole-6-carboxylic acid], a half-maximal response (EC50) required 350 nM.

The same experiment, now with this note: Table 3; cAMP Hunter CHO-K1 GLP1R Gs cells; percent activity normalized to Exendin-4.
In turn, `O=C(O)c1ccc2nc(CN3CCN(c4ccc5c(n4)N(Cc4ccccc4)C(=O)CO5)CC3)n(C[C@@H]3CCO3)c2c1` [Compound 154, (S)-2-((4-(4-benzyl-3-oxo-3,4-dihydro-2H-pyrido[3,2-b][1,4]oxazin-6-yl)piperazin-1-yl)methyl)-1-(oxetan-2-ylmethyl)-1H-benzo[d]imidazole-6-carboxylic acid] displayed an EC50 greater than 500 nM.
The compound `N#Cc1ccc(-n2ccc3c(C4CCN(Cc5nc6ccc(C(=O)O)cc6n5C[C@@H]5CCO5)CC4)cccc3c2=O)c(F)c1` [Compound 147, (S)-2-((4-(2-(4-cyano-2-fluorophenyl)-1-oxo-1,2-dihydroisoquinolin-5-yl)piperidin-1-yl)methyl)-1-(oxetan-2-ylmethyl)-1H-benzo[d]imidazole-6-carboxylic acid] showed an EC50 greater than 500 nM.
Same read-out and setting: in the case of `N#Cc1cc(F)c2c(c1)CCN(c1cccc(C34CCN(Cc5nc6ccc(C(=O)O)cc6n5CC5CCO5)CC3C4)n1)C2` (stereo not drawn) [Compound 168, 2-((6-(6-(6-cyano-8-fluoro-3,4-dihydroisoquinolin-2(1H)-yl)pyridin-2-yl)-3-azabicyclo[4.1.0]heptan-3-yl)methyl)-1-(oxetan-2-ylmethyl)-1H-benzo[d]imidazole-6-carboxylic acid] it was 17.4 nM.

For another experiment, the target named is T1, human GLP-1R. Put plainly: GLP-1R Cell Assay 2: CHO-K1_hGLP-1Rlow_clone10 cells, LANCE Ultra cAMP TR-FRET assay. It is filed as cell-based. Set-up: expressed in transfected cells. To be noted: Table 3, percent activation relative to control GLP-1 peptide agonist. How it is done:
Stable cell lines expressing high and low GLP-1R surface expression were generated in CHO-K1 cells transfected (Fugene 6) with a puromycin selectable DNA plasmid encoding human GLP-1R receptor (accession number: NM_002062.5) under control of an EF1A promoter. Transfected cells were seeded into 24-well plates (9,000 cells/well) containing complete medium and incubated in a humidified incubator at 37° C. with 5% carbon dioxide. After overnight incubation, medium was replaced with complete medium supplemented with puromycin (6 μg/mL) and refreshed every 2-3 days to select for stably transfected cells. Individual pools of selected cells were expanded prior to analysis for responsiveness to GLP-1 control peptide using a TR-FRET assay to detect cAMP (LANCE Ultra cAMP Assay, Perkin Elmer). Briefly, cells were collected in Versene solution, plated in 384-well plates (1,000 cells/well) and combined with serially diluted GLP-1R control peptide (10 nL) using an acoustic dispenser (ECHO). Plates were incubated for 30 minutes at 25° C. prior to the addition of EU-cAMP tracer (5 μL) and Ulight-anti-cAMP (5 μL) reagents to each well, followed by 15 minutes incubation at 25° C. TR-FRET signal was detected using an EnVision Multimode Plate Reader (excitation=320 nm; emission=615 and 655 nm). Dose-response curves were used to generate EC50 values as a measure of responsiveness to the GLP-1R control peptide. Selected cell lines were monitored for responsiveness over multiple passages to ensure stability. […] Briefly, GLP-1R expression was analyzed by flow cytometry using a fluorescein-labeled Exendin-4 peptide fluorescent probe (FLEX). Cells were harvested in Versene solution and washed 3-times with PBS+0.5% BSA before incubation with FLEX reagent (10 μM) for 2 hours at room temperature. After incubation, cells were washed 3-times in PBS+0.5% BSA before final resuspension in PBS prior to analysis by flow cytometry to measure FLEX mean fluorescence intensity (MFI) as a measure of GLP-1R expression on the cell surface.
For compound testing in the CHO-K1_hGLP-1Rlow_clonel0 cell lines, cells were seeded in 384-well plates (1,000 cells/well). Test compounds were serially diluted in DMSO (10-point, 3-fold dilution), added to wells using an ECHO dispenser (10 nL/well) and plates were centrifuged for 1 min and agitated for 2 min at room temperature prior to 30-minute incubation at 25° C. After incubation, Eu-cAMP (5 p,L) and Ulight-anti-cAMP (5 μL) reagents were added to each well, followed by centrifugation for 1 minute, agitation for 2 minutes at room temperature, and final incubation of the plates at 25° C. for 15 minutes. Plates were read using an EnVision microplate reader (excitation=320 nm; emission=615 and 655 nm). Dose-response curves were generated from duplicate wells based on percent activation calculated relative to a control GLP-1 peptide agonist that was run in parallel. EC50 values were determined by fitting percent activation as a function of compound concentration using the Hill equation (XLfit).
Background: Time-resolved FRET reads energy transfer from a long-lived donor to a nearby acceptor.
Regarding `CCn1cncc1Cn1c(CN2CC[C@]3(c4nccc(N5CCc6cc(C#N)cc(F)c6C5)n4)C[C@@H]3C2)nc2ccc(C(=O)O)cc21` (single isomer, unassigned) [Compound 186-P2], the EC50 is greater than 10000 nM.
In turn, `N#Cc1cc(F)c2c(c1)CCN(c1cccc(C3CCN(Cc4nc5ccc(C(=O)O)cc5n4Cc4ncco4)CC3)n1)C2` [Compound 172, 2-((4-(6-(6-cyano-8-fluoro-3,4-dihydroisoquinolin-2(1H)-yl)pyridin-2-yl)piperidin-1-yl)methyl)-1-(oxazol-2-ylmethyl)-1H-benzo[d]imidazole-6-carboxylic acid] had an EC50 of 119 nM.
The same measure, in the same setting: in the case of `O=C(O)c1ccc2nc(CN3CCC(c4cccc(Oc5ccccc5)n4)CC3)n(C[C@@H]3CCO3)c2c1` [Compound 183, (S)-1-(oxetan-2-ylmethyl)-2-((4-(6-phenoxypyridin-2-yl)piperidin-1-yl)methyl)-1H-benzo[d]imidazole-6-carboxylic acid] it was greater than 10000 nM.
For the compound `CCn1nncc1Cn1c(CN2CCC(c3cccc(OCc4nc5c(F)cc(C#N)cc5s4)n3)CC2)nc2ccc(C(=O)O)cc21` [Compound 178, 2-((4-(6-((6-cyano-4-fluorobenzo[d]thiazol-2-yl)methoxy)pyridin-2-yl)piperidin-1-yl)methyl)-1-((1-ethyl-1H-1,2,3-triazol-5-yl)methyl)-1H-benzo[d]imidazole-6-carboxylic acid], the EC50 came to 7.56 nM.
As for `CCn1cncc1Cn1c(CN2CCC(c3cccnc3OCc3ccc(C(N)=O)cc3F)CC2)nc2ccc(C(=O)O)cc21` [Compound 170, 2-((4-(2-((4-carbamoyl-2-fluorobenzyl)oxy)pyridin-3-yl)piperidin-1-yl)methyl)-1-((1-ethyl-1H-imidazol-5-yl)methyl)-1H-benzo[d]imdiazole-6-carboxylic acid], the EC50 stood at 120 nM.
On the same count and under the same terms, in the case of `O=C(O)c1ccc2nc(CN3CCC(c4cccc(OCc5nc(C(F)(F)F)cs5)n4)CC3)n(C[C@@H]3CCO3)c2c1` [Compound 179, (S)-1-(oxetan-2-ylmethyl)-2-((4-(6-((4-(trifluoromethyl)thiazol-2-yl)methoxy)pyridin-2-yl)piperidin-1-yl)methyl)-1H-benzo[d]imidazole-6-carboxylic acid] it was 36.6 nM.

As usually defined, the EC50 is the concentration at which the effect is half-maximal. Lower therefore signals higher potency in that assay.
